Patent US20260060973A1, “Ophthalmic Composition for Treating Non-Infectious Inflammatory Diseases” (VIVAVISION BIOTECH LTD., priority 2023, published 2026)
Entries after “also recorded” stand apart in the source; their conditions may differ.

What was measured:
[1] = Solubility in water; type: physicochemical
[2] = target: Janus kinase 1 (JAK1) (Homo sapiens, UniProt P23458); experiment: Mechanism of action of VVN461; type: biochemical
Text: (§1) JAK- or TYK-dependent cytokines are associated with non-infectious inflammatory diseases (e.g., uveitis or other ocular diseases), which is a potential therapeutic target for immune-mediated uveitis. VVN461 can target both Janus kinase 1 (JAK1) and tyrosine kinase 2 (TYK2), target JAK/TYK-dependent cytokines, and inhibit Janus kinase (JAK)/signal transducer and activation of transcription (STAT) pathway, and thus can be used for the treatment of non-infectious inflammatory diseases such as uveitis. […] These phosphorylated receptor residues that act as binding sites for STAT proteins are activated by the phosphorylation of the JAKs, so that STAT proteins are dimerized and translocated to the nucleus of the cell, thereby bind to specific DNA sites and regulate gene expression, which in turn leads to inflammation. In contrast, VVN461 of the present application can target JAK/TYK-dependent cytokines and inhibit the JAK/STAT pathway, and thus can be used for the treatment of non-infectious inflammatory diseases such as uveitis.

[3] = target: tyrosine kinase 2 (TYK2) (Homo sapiens, UniProt P29597); experiment: Mechanism of action of VVN461; type: biochemical
Text: as §1

tyrosine kinase 2 (TYK2), sequence (P29597 whole entry, species assumed): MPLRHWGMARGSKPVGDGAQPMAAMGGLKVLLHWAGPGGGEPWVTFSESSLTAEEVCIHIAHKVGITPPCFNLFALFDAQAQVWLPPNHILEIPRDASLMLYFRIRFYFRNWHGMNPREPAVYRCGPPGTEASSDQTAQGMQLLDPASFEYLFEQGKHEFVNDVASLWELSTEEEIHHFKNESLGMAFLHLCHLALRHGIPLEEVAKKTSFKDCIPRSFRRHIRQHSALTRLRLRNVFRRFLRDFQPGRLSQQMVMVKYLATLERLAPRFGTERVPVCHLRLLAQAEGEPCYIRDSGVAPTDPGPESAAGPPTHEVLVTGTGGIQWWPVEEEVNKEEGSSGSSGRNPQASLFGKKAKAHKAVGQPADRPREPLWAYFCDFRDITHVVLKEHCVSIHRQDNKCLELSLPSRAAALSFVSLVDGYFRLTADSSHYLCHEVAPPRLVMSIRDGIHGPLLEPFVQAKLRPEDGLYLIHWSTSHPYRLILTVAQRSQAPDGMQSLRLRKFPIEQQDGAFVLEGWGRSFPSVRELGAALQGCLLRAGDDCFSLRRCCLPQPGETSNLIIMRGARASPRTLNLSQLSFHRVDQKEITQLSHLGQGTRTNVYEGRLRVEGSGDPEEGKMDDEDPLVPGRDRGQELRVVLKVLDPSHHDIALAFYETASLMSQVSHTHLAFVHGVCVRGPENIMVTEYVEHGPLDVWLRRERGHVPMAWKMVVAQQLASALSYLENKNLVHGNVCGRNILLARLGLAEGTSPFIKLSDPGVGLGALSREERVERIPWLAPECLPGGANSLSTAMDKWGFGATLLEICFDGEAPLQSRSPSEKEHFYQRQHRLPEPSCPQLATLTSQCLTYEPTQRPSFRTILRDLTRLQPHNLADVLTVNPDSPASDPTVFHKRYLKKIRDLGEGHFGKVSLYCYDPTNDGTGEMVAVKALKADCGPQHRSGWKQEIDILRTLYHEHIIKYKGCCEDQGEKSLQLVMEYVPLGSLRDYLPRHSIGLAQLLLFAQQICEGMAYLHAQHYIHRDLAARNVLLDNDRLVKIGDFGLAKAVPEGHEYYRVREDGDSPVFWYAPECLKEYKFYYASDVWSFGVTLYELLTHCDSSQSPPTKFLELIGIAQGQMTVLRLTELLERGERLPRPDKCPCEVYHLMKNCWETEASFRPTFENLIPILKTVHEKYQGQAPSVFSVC
Janus kinase 1 (JAK1), sequence (P23458 whole entry, species assumed): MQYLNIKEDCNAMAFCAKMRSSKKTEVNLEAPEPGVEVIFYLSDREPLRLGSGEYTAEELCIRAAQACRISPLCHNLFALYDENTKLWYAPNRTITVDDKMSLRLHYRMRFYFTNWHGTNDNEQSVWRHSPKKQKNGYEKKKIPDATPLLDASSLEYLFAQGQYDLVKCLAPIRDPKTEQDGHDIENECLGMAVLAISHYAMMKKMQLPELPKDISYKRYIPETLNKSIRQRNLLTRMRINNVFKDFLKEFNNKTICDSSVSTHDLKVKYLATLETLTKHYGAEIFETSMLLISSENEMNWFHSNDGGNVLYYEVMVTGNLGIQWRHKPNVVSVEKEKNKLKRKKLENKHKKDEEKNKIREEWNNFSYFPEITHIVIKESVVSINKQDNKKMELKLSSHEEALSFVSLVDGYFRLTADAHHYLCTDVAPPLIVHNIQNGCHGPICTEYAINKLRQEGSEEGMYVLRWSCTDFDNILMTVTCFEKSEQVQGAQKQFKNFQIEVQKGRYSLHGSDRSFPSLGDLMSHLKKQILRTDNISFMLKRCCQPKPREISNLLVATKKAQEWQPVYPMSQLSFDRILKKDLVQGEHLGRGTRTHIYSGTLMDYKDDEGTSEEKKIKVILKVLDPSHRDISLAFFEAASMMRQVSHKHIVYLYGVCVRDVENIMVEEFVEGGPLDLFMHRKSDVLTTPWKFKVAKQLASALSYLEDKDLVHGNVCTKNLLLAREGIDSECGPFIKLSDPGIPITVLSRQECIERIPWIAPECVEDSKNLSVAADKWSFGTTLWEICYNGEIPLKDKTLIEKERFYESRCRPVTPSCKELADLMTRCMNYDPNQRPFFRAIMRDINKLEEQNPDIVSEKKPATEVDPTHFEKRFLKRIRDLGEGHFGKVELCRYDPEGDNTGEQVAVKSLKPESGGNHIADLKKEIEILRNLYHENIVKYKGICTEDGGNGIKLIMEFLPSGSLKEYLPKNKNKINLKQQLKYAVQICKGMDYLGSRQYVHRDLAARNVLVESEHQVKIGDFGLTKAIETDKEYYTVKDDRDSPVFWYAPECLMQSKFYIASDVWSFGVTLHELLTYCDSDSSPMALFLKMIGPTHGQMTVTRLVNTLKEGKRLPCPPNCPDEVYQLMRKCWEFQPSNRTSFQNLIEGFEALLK

JAK1 inhibition [2]: dual JAK1/TYK2 inhibitor | TYK2 inhibition [3]: dual JAK1/TYK2 inhibitor
SMILES: C[C@@H](O)c1nc2cnc3[nH]ccc3c2n1N1CCC(CC#N)CC1 [VVN461, (R)-2-(1-(2-(1-hydroxyethyl)imidazo[4,5-d]pyrrolo[2,3-b]pyridin-1(6H)-yl)piperidin-4-yl)acetonitrile]
solubility [1]: practically insoluble in water; also recorded: low water solubilities
